Results: ChEMBL document CHEMBL4342407, “Thieno[2,3-d]pyrimidine as a promising scaffold in medicinal chemistry: Recent advances” (Bioorg Med Chem, 2019)

Experiments:
[1] = target: Cyclin-dependent kinase 4/cyclin D1 (Homo sapiens, UniProt P11802); experiment: Inhibition of CDK4/cyclin D1 (unknown origin) expressed in baculovirus infected Sf9 insect cells using GST-Rb as substrate in presence of [33P] ATP incubated for 30 mins
[2] = target: Cyclin-dependent kinase 2/cyclin E1 (Homo sapiens, UniProt P24941); experiment: Inhibition of CDK2/cyclin E (unknown origin) expressed in baculovirus infected Sf9 insect cells using GST-Rb as substrate in presence of [33P] ATP incubated for 30 mins
Homo sapiens [3] = organism: Homo sapiens; experiment: Selectivity ratio of IC50 for CDK2/cyclin E (unknown origin) expressed in baculovirus infected Sf9 insect cells to IC50 for CDK4/cyclin D1 (unknown origin) expressed in baculovirus infected Sf9 insect cells
Hepatovirus A = experiment: Antiviral activity against Hepatitis A virus infected in HepG2 cells assessed as virus inhibition at 40 ug/L incubated overnight with virus followed by inoculation and measured after 1 hr by crystal violet staining based plaque reduction assay; format: functional
Human alphaherpesvirus 1 [4] = experiment: Antiviral activity against Herpes simplex virus 1 at 20 ug/10^5; format: functional
Human alphaherpesvirus 1 [5] = experiment: Antiviral activity against Herpes simplex virus 1 at 50 ug/10^5; format: functional
Adenosine receptor A3 = target: T1, Adenosine receptor A3 (Homo sapiens, UniProt P0DMS8); experiment: Displacement of [3H]-HEMADO from human A3 receptor expressed in CHO cells by radioligand competitive binding assay; format: cell-based
T1 sequence (P0DMS8 whole entry): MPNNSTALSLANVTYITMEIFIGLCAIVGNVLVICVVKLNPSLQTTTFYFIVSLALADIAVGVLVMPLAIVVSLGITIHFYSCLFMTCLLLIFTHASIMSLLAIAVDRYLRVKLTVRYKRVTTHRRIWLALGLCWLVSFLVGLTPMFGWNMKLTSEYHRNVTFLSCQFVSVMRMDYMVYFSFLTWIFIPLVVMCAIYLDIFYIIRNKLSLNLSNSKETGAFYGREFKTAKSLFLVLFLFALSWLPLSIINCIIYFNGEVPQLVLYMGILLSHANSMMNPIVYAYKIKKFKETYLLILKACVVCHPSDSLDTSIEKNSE

Homo sapiens [6] = organism: Homo sapiens; experiment: Selectivity ratio of Ki for human A2A receptor expressed in CHO cells to Ki for human A3 receptor expressed in CHO cells; format: cell-based
Homo sapiens [7] = organism: Homo sapiens; experiment: Selectivity ratio of Ki for human A1 receptor expressed in CHO cells to Ki for human A2A receptor expressed in CHO cells; format: cell-based
Adenosine receptor A2a = Adenosine receptor A2a (Homo sapiens, UniProt P29274); experiment: Displacement of [3H]-NECA from human A2A receptor expressed in CHO cells by radioligand competitive binding assay; format: cell-based
Adenosine receptor A1 = target: T2, Adenosine receptor A1 (Homo sapiens, UniProt P30542); experiment: Displacement of [3H]-CCPA binding from human A1 receptor expressed in CHO cells by radioligand competitive binding assay; format: cell-based
T2 sequence (P30542 whole entry): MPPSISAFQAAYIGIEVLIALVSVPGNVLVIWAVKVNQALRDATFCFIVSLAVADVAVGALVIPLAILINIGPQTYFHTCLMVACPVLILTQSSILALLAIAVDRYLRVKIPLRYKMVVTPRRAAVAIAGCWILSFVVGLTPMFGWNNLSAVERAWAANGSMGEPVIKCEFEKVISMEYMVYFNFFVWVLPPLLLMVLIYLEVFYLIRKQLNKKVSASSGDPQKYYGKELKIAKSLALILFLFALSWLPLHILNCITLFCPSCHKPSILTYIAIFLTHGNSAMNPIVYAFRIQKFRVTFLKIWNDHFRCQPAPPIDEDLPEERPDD

Homo sapiens [8] = organism: Homo sapiens; experiment: Selectivity ratio of Ki for human A1 receptor expressed in CHO cells to Ki for human A3 receptor expressed in CHO cells; format: cell-based
Rattus norvegicus [9] = experiment: Antiinflammatory activity in gamma irradiated rat assessed as reduction in serum IL-6 level at 150 mg/kg, ip administered once daily for 7 consecutive days by ELISA (reference value: 103.87 +/- 3.273 pg/ml); format: functional
Rattus norvegicus [10] = experiment: Antiinflammatory activity in gamma irradiated rat assessed as reduction in COX-2 level in liver tissue homogenates at 150 mg/kg, ip administered once daily for 7 consecutive days by ELISA (reference value: 89.50 +/- 2.617 ng/ml); format: functional
Rattus norvegicus [11] = experiment: Antiinflammatory activity in gamma irradiated rat assessed as reduction in serum TNFalpha level at 150 mg/kg, ip administered once daily for 7 consecutive days by ELISA (reference value: 105.07 +/- 3.925 pg/ml); format: functional
Rattus norvegicus [12] = experiment: Antiinflammatory activity in gamma irradiated rat assessed as reduction in NFkappaB level in liver tissue homogenates at 150 mg/kg, ip administered once daily for 7 consecutive days by ELISA (reference value: 258.33 +/- 4.216 pg/ml); format: functional
HCT-116 = experiment: Antiproliferative activity against human HCT116 after 18 hrs by MTT assay; format: functional, cell-based; conditions: HCT-116, 18 h
A549 = experiment: Antiproliferative activity against human A549 after 18 hrs by MTT assay; format: functional, cell-based; conditions: A549, 18 h
[13] = Ulcerogenic activity in Sprague-Dawley rat assessed as ulcer index at 20 mg/kg, ip pretreated followed by pylorus ligation and measured at 4 hrs post ligation; format: toxicity, organism-based; conditions: in vivo
Mus musculus = experiment: Analgesic activity in Swiss albino mouse assessed as protection against acetic acid-induced writhing at 15 mg/kg, po pretreated for 30 mins followed by acetic acid challenge and measured after 20 mins relative to control; format: functional
Rattus norvegicus [14] = experiment: Antiinflammatory activity in Sprague-Dawley rat assessed as inhibition of carrageenan-induced edema at 15 mg/kg, po pretreated for 1 hr followed by carrageenan challenge and measured after 4 hrs by mercury plethysmometer relative to control; format: functional
[15] = Inhibition of Influenza A virus H3N2 Neuraminidase
Staphylococcus aureus = experiment: Antibacterial activity against Staphylococcus aureus assessed as zone inhibition at 100 ug/ml; format: functional; conditions: read-out: IZ
Klebsiella pneumoniae = experiment: Antibacterial activity against Klebsiella pneumoniae assessed as zone inhibition at 100 ug/ml; format: functional; conditions: read-out: IZ
Escherichia coli = experiment: Antibacterial activity against Escherichia coli assessed as zone inhibition at 100 ug/ml; format: functional; conditions: read-out: IZ
Bacillus subtilis = experiment: Antibacterial activity against Bacillus subtilis assessed as zone inhibition at 100 ug/ml; format: functional; conditions: read-out: IZ

Sequence of Adenosine receptor A2a (P29274 whole entry): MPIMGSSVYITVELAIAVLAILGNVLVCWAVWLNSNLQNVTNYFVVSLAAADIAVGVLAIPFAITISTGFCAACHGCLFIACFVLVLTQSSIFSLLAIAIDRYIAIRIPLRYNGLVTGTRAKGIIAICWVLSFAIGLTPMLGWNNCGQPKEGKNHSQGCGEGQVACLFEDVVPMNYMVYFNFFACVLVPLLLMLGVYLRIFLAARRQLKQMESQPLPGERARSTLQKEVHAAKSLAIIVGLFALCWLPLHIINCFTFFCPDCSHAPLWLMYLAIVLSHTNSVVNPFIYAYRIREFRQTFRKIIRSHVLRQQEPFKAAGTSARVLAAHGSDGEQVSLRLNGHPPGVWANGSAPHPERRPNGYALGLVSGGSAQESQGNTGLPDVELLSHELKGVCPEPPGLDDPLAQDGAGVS
Sequence of Cyclin-dependent kinase 4/cyclin D1 (P11802 whole entry): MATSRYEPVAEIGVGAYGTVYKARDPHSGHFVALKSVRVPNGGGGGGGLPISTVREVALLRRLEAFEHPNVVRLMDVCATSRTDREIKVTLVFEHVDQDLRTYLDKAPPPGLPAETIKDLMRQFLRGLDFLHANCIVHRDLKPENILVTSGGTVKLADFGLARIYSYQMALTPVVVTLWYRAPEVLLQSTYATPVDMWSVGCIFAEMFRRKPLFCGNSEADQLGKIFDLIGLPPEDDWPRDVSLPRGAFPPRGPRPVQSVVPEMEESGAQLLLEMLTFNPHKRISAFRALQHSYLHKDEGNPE
Sequence of Cyclin-dependent kinase 4/cyclin D1 (P24385 whole entry, further chain): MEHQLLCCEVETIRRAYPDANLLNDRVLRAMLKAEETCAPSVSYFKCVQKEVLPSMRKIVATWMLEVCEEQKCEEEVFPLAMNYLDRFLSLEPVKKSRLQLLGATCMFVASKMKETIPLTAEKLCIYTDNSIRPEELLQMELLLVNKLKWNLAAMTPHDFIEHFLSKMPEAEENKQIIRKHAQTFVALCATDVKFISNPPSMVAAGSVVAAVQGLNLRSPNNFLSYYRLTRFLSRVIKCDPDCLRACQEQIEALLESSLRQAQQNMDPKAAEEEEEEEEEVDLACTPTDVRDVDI

Compound `CNCc1csc(/C=N/Nc2ncnc3sc(C(C)C(C)C)cc23)n1` (stereo not drawn) has an IC50 [1] of 0.022 µM, an IC50 [2] of 0.88 µM and a Ratio IC50 (Homo sapiens [3]) of 40.

For `CC(=O)OC[C@H]1O[C@@H](Sc2nc3sc4c(c3c(=O)n2CCO)CCCCC4)[C@H](OC(C)=O)[C@@H](OC(C)=O)[C@@H]1OC(C)=O`, the “inhibition (INH)” value (Hepatovirus A) was 65%.

For `OCCSc1ncnc2sc3c(c12)-c1ccccc1CC3`, the Activity (Human alphaherpesvirus 1 [4]) was 5% and the Activity (Human alphaherpesvirus 1 [5]) was 30%.

`Cc1sc2nc(NC(=O)c3ccccc3)[nH]c(=O)c2c1C` showed a Ki (Adenosine receptor A3) of 0.124 µM, a Ratio Ki (Homo sapiens [6]) of 5.24 and a Ratio Ki (Homo sapiens [7]) of over 46. It also gave a Ki (Adenosine receptor A2a) of 0.65 µM, a Ki (Adenosine receptor A1) of over 30 µM and a Ratio Ki (Homo sapiens [8]) of over 240.

In the case of `CCOC(=O)c1sc2ncnc(Cl)c2c1C`, the “Serum IL-6 level” value (Rattus norvegicus [9]) is reported as 50.1 pg/mL, the “COX-2 level in liver homogenate” value (Rattus norvegicus [10]) is reported as 36.33 ng/mL and the “Serum TNFalpha level” value (Rattus norvegicus [11]) is reported as 41.53 pg/mL. For the same compound, the “NFkappaB level in liver tissue” value (Rattus norvegicus [12]) was 138.17 pg/mL.

With `Cc1cc2c(OCc3cc(-c4ccc(Cl)cc4)no3)ncnc2s1` the IC50 (HCT-116) was 6.69 µM and the IC50 (A549) was 2.79 µM.

With `CC(=O)OC[C@H]1O[C@@H](Sc2nc3sc4c(c3c(=O)n2-c2ccccc2)CCCCC4)[C@H](OC(C)=O)[C@@H](OC(C)=O)[C@@H]1OC(C)=O` the “inhibition (INH)” value (Hepatovirus A) was 50%.

Compound `CC(=O)c1nn(-c2ccc(Cl)cc2)c2nc3sc(-c4ccccc4)c(C)c3c(=O)n12` has a UI [13] of 0.9, an Activity (Mus musculus) of 35% and an inhibition in vivo at 15 mg/kg (Rattus norvegicus [14]) of 74.5%.

In the case of `NC12CC3CC(CC(C3)C1)C2` [AMANTADINE], the “inhibition (INH)” value (Hepatovirus A) is reported as 55%.

Work on `C/C(=N\Nc1nc(-c2c[nH]c3ccccc23)nc2sc3c(c12)CCCC3)c1ccccc1` yielded an IC50 [15] of 0.237 µM.

With `Cc1c(-c2ccccc2)sc2nc3n(-c4ccccc4)nc(-c4ccccc4)n3c(=O)c12` the UI [13] was 1.1, the Activity (Mus musculus) was 52% and the inhibition in vivo at 15 mg/kg (Rattus norvegicus [14]) was 74.6%.

Work on `FC(F)(F)c1ccc(C2=NOC(c3cc4cncnc4s3)C2)cc1` (stereo not drawn) yielded a zone of inhibition at 100 µg/mL (Staphylococcus aureus) of 15 mm, a zone of inhibition at 100 µg/mL (Klebsiella pneumoniae) of 16.5 mm and a zone of inhibition at 100 µg/mL (Escherichia coli) of 17 mm. It also gave a zone of inhibition at 100 µg/mL (Bacillus subtilis) of 13 mm.

In the case of `COCCSc1nc(C)nc2sc3c(c12)-c1ccccc1CC3`, the Activity (Human alphaherpesvirus 1 [4]) is reported as 5% and the Activity (Human alphaherpesvirus 1 [5]) is reported as 45%.

With `Nc1nc(-n2ccnc2)c2c3c(sc2n1)CCCC3` the Ki (Adenosine receptor A3) was over 30 µM, the Ratio Ki (Homo sapiens [6]) was over 0.14 and the Ratio Ki (Homo sapiens [7]) was 2.6. The Ki (Adenosine receptor A2a) was 4.06 µM, the Ki (Adenosine receptor A1) was 10.4 µM and the Ratio Ki (Homo sapiens [8]) was over 0.35.

With `Cc1sc2nc(N)nc(-n3cncn3)c2c1C` the Ki (Adenosine receptor A3) was over 30 µM, the Ratio Ki (Homo sapiens [6]) was over 0.19 and the Ratio Ki (Homo sapiens [7]) was 7.2. It also gave a Ki (Adenosine receptor A2a) of 5.69 µM, a Ki (Adenosine receptor A1) of 40.8 µM and a Ratio Ki (Homo sapiens [8]) of over 1.4.

`O=C1CCC(=O)N1Nc1nc(-c2c[nH]c3ccccc23)nc2sc3c(c12)CCCC3` showed an IC50 [15] of 0.021 µM.

With `FC(F)(F)Oc1ccc(C2=NOC(c3cc4cncnc4s3)C2)cc1` (stereo not drawn) the zone of inhibition at 100 µg/mL (Staphylococcus aureus) was 14.5 mm, the zone of inhibition at 100 µg/mL (Klebsiella pneumoniae) was 15 mm and the zone of inhibition at 100 µg/mL (Escherichia coli) was 16.5 mm. It also gave a zone of inhibition at 100 µg/mL (Bacillus subtilis) of 12.5 mm.

With `CC(=O)OC[C@H]1O[C@@H](Sc2nc3sc4c(c3c(=O)n2Cc2ccccc2)CCCCC4)[C@H](OC(C)=O)[C@@H](OC(C)=O)[C@@H]1OC(C)=O` the “inhibition (INH)” value (Hepatovirus A) was 55%.

`CCc1cc2c(OCc3cc(-c4ccc(Cl)cc4)no3)ncnc2s1` gave an IC50 (HCT-116) of 33.3 µM and an IC50 (A549) of 45.5 µM.
